# Values joined by “and” are separate entries in the source; they are usually repeats but may differ in a detail not shown here. Equal values may be shown once.
# How the values were obtained:
# PIK3CA (human) [1] = target: PIK3CA (human) (UniProt P42336); assay: Enzyme Assay
# [2] = target: PIK3CA (human), P42336 [I800L]; assay: Enzyme Assay
# PIK3CB (Human) [3] = target: PIK3CB (Human) (UniProt P42338); assay: Enzyme Assay
# PIK3CD (Human) [4] = target: PIK3CD (Human) (UniProt O00329); assay: Enzyme Assay
# Sequence of PIK3CD (Human) (O00329 whole entry, looked up): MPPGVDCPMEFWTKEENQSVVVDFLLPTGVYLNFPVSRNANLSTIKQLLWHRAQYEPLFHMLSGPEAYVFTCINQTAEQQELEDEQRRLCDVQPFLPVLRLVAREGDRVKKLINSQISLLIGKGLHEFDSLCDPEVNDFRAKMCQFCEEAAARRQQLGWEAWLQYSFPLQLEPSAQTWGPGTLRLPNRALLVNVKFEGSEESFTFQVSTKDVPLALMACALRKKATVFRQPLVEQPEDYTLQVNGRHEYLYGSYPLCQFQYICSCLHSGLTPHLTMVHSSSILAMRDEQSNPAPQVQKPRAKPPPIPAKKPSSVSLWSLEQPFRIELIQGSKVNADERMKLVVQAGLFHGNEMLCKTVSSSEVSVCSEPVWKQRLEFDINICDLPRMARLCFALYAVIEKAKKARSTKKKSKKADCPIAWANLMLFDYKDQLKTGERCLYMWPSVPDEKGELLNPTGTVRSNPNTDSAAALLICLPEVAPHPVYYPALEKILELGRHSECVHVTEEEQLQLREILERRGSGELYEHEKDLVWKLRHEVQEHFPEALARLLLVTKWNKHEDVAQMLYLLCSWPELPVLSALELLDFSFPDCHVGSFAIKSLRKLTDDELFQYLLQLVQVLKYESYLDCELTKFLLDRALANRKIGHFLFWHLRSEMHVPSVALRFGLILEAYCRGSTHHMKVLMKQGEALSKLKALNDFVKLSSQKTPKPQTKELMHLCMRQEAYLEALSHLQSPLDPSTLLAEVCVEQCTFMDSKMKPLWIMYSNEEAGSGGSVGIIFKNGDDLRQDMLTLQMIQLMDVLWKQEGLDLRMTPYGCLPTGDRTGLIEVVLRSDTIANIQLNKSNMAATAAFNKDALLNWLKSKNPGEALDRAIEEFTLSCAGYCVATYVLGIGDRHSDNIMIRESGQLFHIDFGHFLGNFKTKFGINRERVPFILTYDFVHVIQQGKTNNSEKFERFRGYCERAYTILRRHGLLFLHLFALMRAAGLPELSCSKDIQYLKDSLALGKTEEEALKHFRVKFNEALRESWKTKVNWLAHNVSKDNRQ
# PIK3CG (human) = PIK3CG (human) (UniProt P48736); assay: Enzyme Assay
# Sequence of PIK3CG (human) (P48736 whole entry, looked up): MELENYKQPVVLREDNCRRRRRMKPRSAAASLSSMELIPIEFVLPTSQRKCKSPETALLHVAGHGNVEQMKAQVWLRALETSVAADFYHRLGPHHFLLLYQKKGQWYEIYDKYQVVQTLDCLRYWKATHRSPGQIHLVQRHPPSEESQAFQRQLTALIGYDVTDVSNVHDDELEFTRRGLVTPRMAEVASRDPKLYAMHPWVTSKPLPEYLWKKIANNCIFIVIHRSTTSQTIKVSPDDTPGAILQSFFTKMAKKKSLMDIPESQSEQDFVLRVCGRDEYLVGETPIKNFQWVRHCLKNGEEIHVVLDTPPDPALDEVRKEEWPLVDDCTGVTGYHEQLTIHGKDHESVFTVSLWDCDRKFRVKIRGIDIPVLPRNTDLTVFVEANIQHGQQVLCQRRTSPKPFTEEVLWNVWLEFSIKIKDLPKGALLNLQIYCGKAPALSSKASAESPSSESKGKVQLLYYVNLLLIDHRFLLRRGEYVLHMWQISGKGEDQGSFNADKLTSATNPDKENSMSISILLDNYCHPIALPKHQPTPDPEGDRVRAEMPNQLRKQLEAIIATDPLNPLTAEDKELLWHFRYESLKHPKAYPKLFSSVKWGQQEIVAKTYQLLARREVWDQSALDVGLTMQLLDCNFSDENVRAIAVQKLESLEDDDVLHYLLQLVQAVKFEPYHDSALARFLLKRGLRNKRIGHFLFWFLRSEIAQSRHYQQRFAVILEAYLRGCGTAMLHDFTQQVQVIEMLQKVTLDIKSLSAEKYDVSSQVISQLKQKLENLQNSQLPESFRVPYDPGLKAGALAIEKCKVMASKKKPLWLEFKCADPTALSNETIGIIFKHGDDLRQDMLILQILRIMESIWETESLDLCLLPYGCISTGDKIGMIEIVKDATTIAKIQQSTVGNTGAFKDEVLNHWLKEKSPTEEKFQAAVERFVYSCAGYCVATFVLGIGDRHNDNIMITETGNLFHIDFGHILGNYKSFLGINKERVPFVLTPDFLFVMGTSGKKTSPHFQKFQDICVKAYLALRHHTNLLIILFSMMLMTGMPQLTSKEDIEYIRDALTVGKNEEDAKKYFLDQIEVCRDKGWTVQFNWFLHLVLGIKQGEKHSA
# PIK3CA (human) [5] = target: PIK3CA (human) (UniProt P42336); assay: Cell-Based Assay; settings: jurkat
# PIK3CB (Human) [6] = target: PIK3CB (Human) (UniProt P42338); assay: Cell-Based Assay; settings: jurkat
# PIK3CD (Human) [7] = target: PIK3CD (Human) (UniProt O00329); assay: Cell-Based Assay; settings: jurkat
# PIK3CB (Human) [8] = target: PIK3CB (Human) (UniProt P42338); assay: Cell-Based Assay; settings: jurkat; remark: listed apart in the source
# Sequence of PIK3CB (Human) (P42338 whole entry, looked up): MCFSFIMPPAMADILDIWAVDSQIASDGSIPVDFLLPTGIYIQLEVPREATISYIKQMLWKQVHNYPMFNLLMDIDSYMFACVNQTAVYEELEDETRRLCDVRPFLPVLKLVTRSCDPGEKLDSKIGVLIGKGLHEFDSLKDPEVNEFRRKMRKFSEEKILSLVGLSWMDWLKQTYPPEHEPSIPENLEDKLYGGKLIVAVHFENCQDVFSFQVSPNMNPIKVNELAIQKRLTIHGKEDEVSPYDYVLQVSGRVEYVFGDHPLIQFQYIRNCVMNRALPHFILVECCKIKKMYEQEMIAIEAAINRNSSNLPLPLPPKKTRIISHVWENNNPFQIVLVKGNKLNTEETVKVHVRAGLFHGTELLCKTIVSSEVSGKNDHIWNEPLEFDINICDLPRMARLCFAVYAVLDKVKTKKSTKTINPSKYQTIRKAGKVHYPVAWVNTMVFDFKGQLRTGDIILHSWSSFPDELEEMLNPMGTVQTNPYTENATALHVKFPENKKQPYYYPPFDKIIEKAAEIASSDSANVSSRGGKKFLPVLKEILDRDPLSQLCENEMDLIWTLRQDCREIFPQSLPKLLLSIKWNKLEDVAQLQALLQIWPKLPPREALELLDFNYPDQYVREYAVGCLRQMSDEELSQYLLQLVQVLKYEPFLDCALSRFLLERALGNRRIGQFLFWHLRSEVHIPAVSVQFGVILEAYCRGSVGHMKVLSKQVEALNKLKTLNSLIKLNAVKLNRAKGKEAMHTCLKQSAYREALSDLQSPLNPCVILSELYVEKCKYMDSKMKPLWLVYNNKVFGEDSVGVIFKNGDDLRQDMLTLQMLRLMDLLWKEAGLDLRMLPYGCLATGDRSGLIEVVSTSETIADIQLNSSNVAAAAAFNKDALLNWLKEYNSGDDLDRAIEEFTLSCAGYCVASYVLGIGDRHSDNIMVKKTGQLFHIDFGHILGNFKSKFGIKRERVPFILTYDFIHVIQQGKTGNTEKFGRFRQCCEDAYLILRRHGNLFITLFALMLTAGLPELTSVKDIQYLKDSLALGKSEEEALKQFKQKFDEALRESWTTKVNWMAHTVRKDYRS
# Sequence of PIK3CA (human) (P42336 whole entry, looked up): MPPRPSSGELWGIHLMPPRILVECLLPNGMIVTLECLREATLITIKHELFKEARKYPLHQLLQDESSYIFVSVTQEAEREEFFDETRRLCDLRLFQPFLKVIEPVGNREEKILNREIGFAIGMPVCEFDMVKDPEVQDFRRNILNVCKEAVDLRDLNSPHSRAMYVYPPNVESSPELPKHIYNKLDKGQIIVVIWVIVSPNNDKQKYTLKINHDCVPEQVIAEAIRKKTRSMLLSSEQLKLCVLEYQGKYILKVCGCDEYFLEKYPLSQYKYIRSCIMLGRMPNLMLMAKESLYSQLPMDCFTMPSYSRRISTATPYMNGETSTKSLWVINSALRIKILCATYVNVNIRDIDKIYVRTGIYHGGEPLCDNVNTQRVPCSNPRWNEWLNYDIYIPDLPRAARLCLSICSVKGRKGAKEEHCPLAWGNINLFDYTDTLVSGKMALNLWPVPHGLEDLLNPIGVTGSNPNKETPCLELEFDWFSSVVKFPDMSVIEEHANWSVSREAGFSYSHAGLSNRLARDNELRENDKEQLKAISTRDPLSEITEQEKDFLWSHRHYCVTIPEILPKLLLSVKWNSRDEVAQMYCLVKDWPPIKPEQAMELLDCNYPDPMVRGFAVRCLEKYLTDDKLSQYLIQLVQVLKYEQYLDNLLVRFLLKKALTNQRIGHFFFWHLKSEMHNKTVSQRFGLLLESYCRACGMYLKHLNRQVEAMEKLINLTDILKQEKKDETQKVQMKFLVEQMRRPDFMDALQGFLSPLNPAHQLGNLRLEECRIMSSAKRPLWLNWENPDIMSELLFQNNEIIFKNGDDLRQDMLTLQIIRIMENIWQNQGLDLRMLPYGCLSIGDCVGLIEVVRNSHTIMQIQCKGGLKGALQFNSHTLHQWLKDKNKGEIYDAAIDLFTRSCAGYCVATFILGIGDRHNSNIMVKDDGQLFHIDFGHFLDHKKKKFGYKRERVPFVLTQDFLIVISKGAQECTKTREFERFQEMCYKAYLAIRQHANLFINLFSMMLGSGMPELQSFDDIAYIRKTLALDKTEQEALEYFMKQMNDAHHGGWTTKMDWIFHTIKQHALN
# Sequence of PIK3CA (human), P42336 [I800L] (P42336 whole entry I800L, looked up): as the sequence (P42336 whole entry, looked up) above, with I800L counted along it
compound,measurement,setting,value
COC(=O)Nc1ccc(-c2nc(N3CCOCC3)c3cnn(C4CCN(C(=O)OC)CC4)c3n2)cc1,IC50,PIK3CA (human) [1],886 nM
same,Kd,PIK3CA (human) [1],140 nM
same,Kd,[2],190 nM
same,IC50,PIK3CB (Human) [3],> 12000 nM
same,IC50,PIK3CD (Human) [4],1290 nM
same,IC50,PIK3CG (human),1870 nM
same,IC50,PIK3CA (human) [5],1200 nM
same,IC50,PIK3CB (Human) [6],10000 nM
same,IC50,PIK3CD (Human) [7],3300 nM and 980 nM
same,IC50,PIK3CB (Human) [8],9200 nM

# From the Kinase Knowledgebase extract (Sharma et al. 2016)
